# Read-outs that look alike come from different tables or passages of the source.
# Experiments:
# SRPK1 = SRPK1 (Homo sapiens, UniProt Q96SB4); assay: General kinase assay protocol (33P-ATP, MBP substrate, filter plate): SRPK1; assay type: biochemical; conditions: inhibition at concentration 10 μM; read-out: Inhibitory effect on Target SRPK1
# Experimental: (§1) General Assay Protocol for all Kinases
# (§2) (For UL97 a special UL97 kinase assay was used as described below.)
# (§3) Final Assay Concentrations:
# (§4) • 1) Add 8 μl 50 μM MBP in Reaction Buffer to each well of Assay Plate • 2) Add 10 μl 500 mM EDTA in H2O to C− wells • 3) Add 8 μl 62.5 μCi/ml Adenosine 5′-[γ-^33P]triphosphate+5 μM ATP in Reaction Buffer to each well • 4) Add 8 μl 5 fold concentrated inhibitor in 5% DMSO in Reaction Buffer to each well except to C− and C+ wells • 5) Add 8 μl 5% DMSO in Reaction Buffer to C− and C+wells • 6) Add 8 μl 5 fold concentrated kinase in Reaction Buffer to each well • 7) Incubate 1 hr at room temperature • 8) Add 10 μl 50 mM EDTA in H2O to each well except to C− wells • 9) Prepare MAPH plates by adding 200 μl 0.75% H3PO4 to each well • 10) Exhaust 0.75% H3PO4 using Millipore vacuum station • 11) Add 60 μl 0.75% H3PO4 to each well of MAPH Filter Plate • 12) Transfer 30 μl sample per well from Assay Plate to corresponding well of MAPH Filter Plate • 13) Incubate 30 min at room temperature • 14) Wash each well of MAPH Filter Plates 3× with 200 μl 0.75% H3PO4 using Millipore vacuum station • 15) Add 20 μl Szintilation Liquid to each well of MAPH Filter Plate • 16) Seal MAPH Filter Plate • 17) Store MAPH Filter Plate 30 min in darkness • 18) Quantify radioactivity
# HCMV strain AD169 = assay: HCMV replication assay (reporter gene) in human foreskin fibroblasts; assay type: cell-based, human cytomegalovirus; conditions: Human betaherpesvirus 5; HCMV strain AD169 in HFF cells; read-out: IC50 in inhibiting replication of HCMV
# Experimental: To examine the effect of the pyrazine derivatives on HCMV replication, HCMV infections were performed in a cellular system.
# Human foreskin fibroblasts (HFFs) were grown to subconfluency in 12 well plates and infected with 0.25 tissue culture infectious doses of HCMV AD-169 carrying a reporter gene (HCMV based antiviral assay). Pyrazine derivatives (stocks in DMSO (Dimethylsulfoxide)) were diluted in culture medium to the concentrations indicated and added to the cells immediately after virus adsorption. The success of infection (reporter gene expressing cells) and the lack of cytotoxicity of the compound (confluent cell layer) was monitored by microscopy. After seven days, cell layers were harvested, lysed and subjected to the automated fluorometry measurement of reporter gene activity. Each panel refers to a determination in quadruplicate (infection in duplicate, lysate preparation and measurement in duplicate).
# viral kinase pUL-97 = molecular target: T1, viral kinase pUL-97 (Human cytomegalovirus, UniProt P16788); assay: UL97 kinase assay on Immobilon plate; assay type: biochemical
# T1 construct: The pUL-97 gene was cloned into a baculovirus vector; GST (glutathione S-transferase) (N); made in house; host or cells: Sf9 insect cells, baculovirus
# Method in brief: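 GST-pUL97 from baculovirus-infected Sf9 cells phosphorylated myelin basic protein with ATP (3 μM in the added assay buffer) and γ-[33P]ATP in Tris-HCl pH 7.5 buffer with MnCl2 and DTT. Reaction ran 1 h at 30 °C with graded compound concentrations and was stopped with EDTA. 33P incorporation was measured by scintillation after filter capture and phosphoric acid washes.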
# CDK9 = CDK9 (Homo sapiens, UniProt P50750); assay: General kinase assay protocol (33P-ATP, MBP substrate, filter plate): CDK9; assay type: biochemical; conditions: inhibition at concentration 10 μM; read-out: Inhibitory effect on Target CDK9
# Experimental: as §1, §2, §3, §4
# RICK = RICK (Homo sapiens, UniProt O43353); assay: General kinase assay protocol (33P-ATP, MBP substrate, filter plate): RICK; assay type: biochemical; conditions: inhibition at concentration 10 μM; read-out: Inhibitory effect on Target RICK
# Source text: as §1, §2
# CDK9, sequence (P50750 whole entry, species assumed): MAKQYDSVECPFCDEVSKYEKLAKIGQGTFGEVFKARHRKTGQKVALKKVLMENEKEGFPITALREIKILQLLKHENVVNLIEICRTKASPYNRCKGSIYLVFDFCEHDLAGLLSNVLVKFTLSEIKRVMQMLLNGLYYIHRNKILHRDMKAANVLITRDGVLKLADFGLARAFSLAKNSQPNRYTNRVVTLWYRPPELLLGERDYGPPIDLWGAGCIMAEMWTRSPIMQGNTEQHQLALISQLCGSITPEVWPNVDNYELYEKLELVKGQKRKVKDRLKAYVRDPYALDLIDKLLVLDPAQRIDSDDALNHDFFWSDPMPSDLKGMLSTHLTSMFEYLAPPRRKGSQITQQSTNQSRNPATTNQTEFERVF
# CDK9, sequence (O60563 whole entry partner, species assumed): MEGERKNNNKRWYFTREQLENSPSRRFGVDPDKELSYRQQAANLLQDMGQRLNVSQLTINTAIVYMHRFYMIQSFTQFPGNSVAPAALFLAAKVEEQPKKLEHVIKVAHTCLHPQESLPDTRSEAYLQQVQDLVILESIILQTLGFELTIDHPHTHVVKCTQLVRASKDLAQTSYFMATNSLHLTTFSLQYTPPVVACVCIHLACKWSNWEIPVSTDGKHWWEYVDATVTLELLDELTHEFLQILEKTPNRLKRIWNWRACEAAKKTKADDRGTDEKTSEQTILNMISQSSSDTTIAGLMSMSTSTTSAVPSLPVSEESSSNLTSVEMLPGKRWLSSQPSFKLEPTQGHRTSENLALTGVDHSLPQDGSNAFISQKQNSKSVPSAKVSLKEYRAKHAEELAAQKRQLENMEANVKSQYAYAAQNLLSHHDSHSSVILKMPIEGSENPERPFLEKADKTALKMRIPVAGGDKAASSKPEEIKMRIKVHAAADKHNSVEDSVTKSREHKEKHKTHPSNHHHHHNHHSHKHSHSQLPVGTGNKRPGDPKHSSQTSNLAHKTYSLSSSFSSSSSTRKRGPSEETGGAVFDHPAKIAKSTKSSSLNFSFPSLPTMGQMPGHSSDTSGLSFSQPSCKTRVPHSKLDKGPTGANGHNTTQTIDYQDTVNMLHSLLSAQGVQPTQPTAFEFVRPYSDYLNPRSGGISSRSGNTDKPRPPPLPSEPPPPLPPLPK
# SRPK1, sequence (Q96SB4 whole entry, species assumed): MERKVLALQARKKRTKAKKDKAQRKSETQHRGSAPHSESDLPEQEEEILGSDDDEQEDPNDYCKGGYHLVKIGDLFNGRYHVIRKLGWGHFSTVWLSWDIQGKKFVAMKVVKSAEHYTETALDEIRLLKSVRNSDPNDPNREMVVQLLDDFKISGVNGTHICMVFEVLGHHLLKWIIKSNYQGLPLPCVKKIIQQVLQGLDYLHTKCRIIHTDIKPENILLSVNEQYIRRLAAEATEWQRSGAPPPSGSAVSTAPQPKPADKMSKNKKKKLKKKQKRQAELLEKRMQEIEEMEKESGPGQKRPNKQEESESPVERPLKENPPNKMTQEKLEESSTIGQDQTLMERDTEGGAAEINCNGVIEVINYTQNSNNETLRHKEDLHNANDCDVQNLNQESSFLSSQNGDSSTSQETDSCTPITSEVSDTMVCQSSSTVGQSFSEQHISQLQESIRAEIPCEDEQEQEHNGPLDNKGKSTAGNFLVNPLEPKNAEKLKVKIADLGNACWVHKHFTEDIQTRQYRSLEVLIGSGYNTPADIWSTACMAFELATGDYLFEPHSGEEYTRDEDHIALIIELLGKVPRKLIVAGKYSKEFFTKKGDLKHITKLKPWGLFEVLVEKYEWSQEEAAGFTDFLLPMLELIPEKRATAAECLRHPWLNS
# RICK, sequence (O43353 whole entry, species assumed): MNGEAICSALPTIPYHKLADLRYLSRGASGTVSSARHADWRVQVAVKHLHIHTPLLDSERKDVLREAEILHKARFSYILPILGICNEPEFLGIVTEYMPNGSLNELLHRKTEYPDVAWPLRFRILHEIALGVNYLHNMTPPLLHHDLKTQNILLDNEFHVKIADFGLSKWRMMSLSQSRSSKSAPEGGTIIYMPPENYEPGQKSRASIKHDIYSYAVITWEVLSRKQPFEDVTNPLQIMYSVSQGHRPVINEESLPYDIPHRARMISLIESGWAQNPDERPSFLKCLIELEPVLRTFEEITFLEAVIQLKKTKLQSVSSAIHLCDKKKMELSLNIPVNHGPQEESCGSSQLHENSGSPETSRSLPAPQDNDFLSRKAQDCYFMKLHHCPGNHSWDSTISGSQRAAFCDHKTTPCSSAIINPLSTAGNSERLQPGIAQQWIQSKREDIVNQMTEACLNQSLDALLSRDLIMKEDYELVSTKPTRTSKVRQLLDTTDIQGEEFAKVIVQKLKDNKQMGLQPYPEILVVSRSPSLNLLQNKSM
# T1 sequence (P16788 whole entry): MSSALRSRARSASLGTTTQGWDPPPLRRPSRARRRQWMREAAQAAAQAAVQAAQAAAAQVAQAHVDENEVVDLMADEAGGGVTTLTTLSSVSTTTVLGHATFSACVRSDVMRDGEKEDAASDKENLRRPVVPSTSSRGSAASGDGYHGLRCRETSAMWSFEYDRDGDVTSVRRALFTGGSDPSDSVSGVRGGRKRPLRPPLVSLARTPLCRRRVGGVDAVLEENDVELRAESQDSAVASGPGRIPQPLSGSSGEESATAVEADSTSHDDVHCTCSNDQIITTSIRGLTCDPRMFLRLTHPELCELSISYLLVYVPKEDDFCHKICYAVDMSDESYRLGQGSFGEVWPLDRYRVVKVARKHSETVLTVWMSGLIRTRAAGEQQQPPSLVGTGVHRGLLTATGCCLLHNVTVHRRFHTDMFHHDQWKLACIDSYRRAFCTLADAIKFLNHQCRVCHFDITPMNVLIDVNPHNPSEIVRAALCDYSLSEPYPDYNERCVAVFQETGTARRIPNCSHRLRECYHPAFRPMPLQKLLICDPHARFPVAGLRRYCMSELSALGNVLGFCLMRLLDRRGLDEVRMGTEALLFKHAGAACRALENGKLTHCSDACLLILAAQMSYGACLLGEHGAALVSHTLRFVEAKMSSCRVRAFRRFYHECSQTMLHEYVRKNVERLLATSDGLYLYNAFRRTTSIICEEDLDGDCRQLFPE
compound,measurement,setting,value
CC(=O)Nc1ccc(-c2cncc(Nc3ccccc3)n2)cc1 [Comp. 401],inhibition at 10 µM,SRPK1,> 50%
Nc1nc(O)c2ncn(COC(CO)CO)c2n1 [ganciclovir],IC50,HCMV strain AD169,3 to 4 µM
"CN(C)CCNC(=O)c1cccc(-c2cncc(Nc3ccc(C#N)c(Cl)c3)n2)c1 [Comp. 22, 3-[6-(3-Chloro-4-cyano-phenylamino)-pyrazin-2-yl]-N-(2-dimethylamino-ethyl)-benzamide]",inhibition at 10 µM,SRPK1,> 75%
same,IC50,viral kinase pUL-97,< 1000 nM
CC(=O)Nc1cccc(-c2cncc(Nc3ccc4c(c3)OC(F)(F)C(F)(F)O4)n2)c1 [compound 403],inhibition at 10 µM,CDK9,> 50%
CC(=O)Nc1ccc(-c2cncc(Nc3ccc(Cl)cc3)n2)cc1 [compound 397],inhibition at 10 µM,CDK9,> 50%
Oc1ccc(-c2cncc(Nc3ccc(F)c(Cl)c3)n2)cc1 [Comp. 11],inhibition at 10 µM,RICK,> 50%
same,inhibition at 10 µM,CDK9,> 75%
same,IC50,"viral kinase pUL-97; inhibition of UL 97 kinase activity, class by IC50 / % inhibition at 10 or 100 μM, read-out: Activity Class [A, B, C]",< 1000 nM
CN(C)CCNC(=O)c1cccc(-c2cncc(Nc3ccc(Cl)cc3)n2)c1 [Comp. 381],inhibition at 10 µM,RICK,> 50%
same,inhibition at 10 µM,CDK9,> 50%

# — patent US20080194574A1, “Pyrazine Derivatives As Effective Compounds Against Infectious Diseases” (AXXIMA PHARMACEUTICALS AG, priority 2003, published 2008)
